Laboratory results published in the supplement of paper PMC10307832.

Key:
Test in all cases: relative viability (nuclei count vs DMSO), 5 days (fraction); higher = more cells survive
[1] = compound: CCN1CCN(c2ccc(Nc3cc(N(C)C(=O)Nc4c(Cl)c(OC)cc(OC)c4Cl)ncn3)cc2)CC1 [BGJ398] + Nc1nc2[nH]cc(CCc3ccc(C(=O)N[C@@H](CCC(=O)O)C(=O)O)cc3)c2c(=O)[nH]1 [Pemetrexed] (partner 0.2 µM)
Procedure, shortened: (§1)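 For relative viability, nuclei counts in treated wells were divided by those in vehicle wells. Lung cancer cell lines had been pin-tool dosed in 1536-well plates the day after seeding and cultured for 5 days, then fixed and stained in one step (final 0.05% Triton X-100, 1% formaldehyde, 1 ug/ml Hoechst) and imaged at 4×. Doses were one drug alone or a fixed anchor-drug dose plus five library-drug doses (not always all listed) in √10 steps, and values are duplicate-plate medians.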

[2] = compound: C1=CC2=NC=CN=C2C=C1/C=C/3\C(=O)NC(=O)S3 + COc1cccc2cc(-c3nc([C@H]4CC[C@H](C(=O)O)CC4)n4ncnc(N)c34)[nH]c12 [OSI-027] (partner 0.5 µM)
Procedure, shortened: as §1

[3] = compound: CCN1CCN(c2ccc(Nc3cc(N(C)C(=O)Nc4c(Cl)c(OC)cc(OC)c4Cl)ncn3)cc2)CC1 [BGJ398]
Procedure, shortened: (§2)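 Lung cancer cell lines in 1536-well plates were exposed by pinning to five library-drug doses (not always all listed) √10 apart, following an overnight hold at 37 °C. MetaXpress counted Hoechst-stained nuclei from 4× images taken after 5 days without medium change. Viability is the median ratio of treated-well to vehicle-well nuclei across plates. Plates required control CV below 25% and at least one doubling.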

[4] = compound: C1=CC2=NC=CN=C2C=C1/C=C/3\C(=O)NC(=O)S3
Procedure, shortened: as §2

NCI-H2126
relative viability ([1]; first compound 0.01 µM): 0.724
relative viability ([1]; first compound 0.03162 µM): 0.717
relative viability ([1]; first compound 0.1 µM): 0.689
relative viability ([1]; first compound 0.3162 µM): 0.674
relative viability ([1]; first compound 1 µM): 0.684
relative viability ([2]; first compound 0.02 µM): 0.627
relative viability ([2]; first compound 0.06325 µM): 0.629
relative viability ([2]; first compound 0.2 µM): 0.735
relative viability ([2]; first compound 0.6325 µM): 0.734
relative viability ([2]; first compound 2 µM): 0.363
relative viability ([3]; 0.01 µM): 1.02
relative viability ([3]; 0.03162 µM): 0.999
relative viability ([3]; 0.1 µM): 1.04
relative viability ([3]; 0.3162 µM): 0.989
relative viability ([3]; 1 µM): 0.948
relative viability ([4]; 0.02 µM): 0.885
relative viability ([4]; 0.06325 µM): 1.07
relative viability ([4]; 0.2 µM): 0.956
relative viability ([4]; 0.6325 µM): 0.979
relative viability ([4]; 2 µM): 0.621

NCI-H2170
relative viability ([1]; first compound 0.01 µM): 0.273
relative viability ([1]; first compound 0.03162 µM): 0.254
relative viability ([1]; first compound 0.1 µM): 0.283
relative viability ([1]; first compound 0.3162 µM): 0.276
relative viability ([1]; first compound 1 µM): 0.247
relative viability ([2]; first compound 0.02 µM): 0.714
relative viability ([2]; first compound 0.06325 µM): 0.777
relative viability ([2]; first compound 0.2 µM): 0.729
relative viability ([2]; first compound 0.6325 µM): 0.71
relative viability ([2]; first compound 2 µM): 0.679
relative viability ([3]; 0.01 µM): 0.988
relative viability ([3]; 0.03162 µM): 1.06
relative viability ([3]; 0.1 µM): 1.1
relative viability ([3]; 0.3162 µM): 1.03
relative viability ([3]; 1 µM): 1.07
relative viability ([4]; 0.02 µM): 0.909
relative viability ([4]; 0.06325 µM): 1
relative viability ([4]; 0.2 µM): 1.01
relative viability ([4]; 0.6325 µM): 0.938
relative viability ([4]; 2 µM): 0.998

NCI-H2228
relative viability ([1]; first compound 0.01 µM): 0.312
relative viability ([1]; first compound 0.03162 µM): 0.367
relative viability ([1]; first compound 0.1 µM): 0.377
relative viability ([1]; first compound 0.3162 µM): 0.342
relative viability ([1]; first compound 1 µM): 0.299
relative viability ([2]; first compound 0.02 µM): 0.665
relative viability ([2]; first compound 0.06325 µM): 0.581
relative viability ([2]; first compound 0.2 µM): 0.525
relative viability ([2]; first compound 0.6325 µM): 0.661
relative viability ([2]; first compound 2 µM): 0.335
relative viability ([3]; 0.01 µM): 0.814
relative viability ([3]; 0.03162 µM): 1.18
relative viability ([3]; 0.1 µM): 1.38
relative viability ([3]; 0.3162 µM): 0.876
relative viability ([3]; 1 µM): 0.963
relative viability ([4]; 0.02 µM): 0.898
relative viability ([4]; 0.06325 µM): 1.06
relative viability ([4]; 0.2 µM): 1.22
relative viability ([4]; 0.6325 µM): 0.898
relative viability ([4]; 2 µM): 0.842

NCI-H2342
relative viability ([1]; first compound 0.01 µM): 0.742
relative viability ([1]; first compound 0.03162 µM): 0.775
relative viability ([1]; first compound 0.1 µM): 0.801
relative viability ([1]; first compound 0.3162 µM): 0.773
relative viability ([1]; first compound 1 µM): 0.755
relative viability ([2]; first compound 0.02 µM): 0.506
relative viability ([2]; first compound 0.06325 µM): 0.682
relative viability ([2]; first compound 0.2 µM): 0.628
relative viability ([2]; first compound 0.6325 µM): 0.632
relative viability ([2]; first compound 2 µM): 0.535
relative viability ([3]; 0.01 µM): 0.998
relative viability ([3]; 0.03162 µM): 0.96
relative viability ([3]; 0.1 µM): 0.934
relative viability ([3]; 0.3162 µM): 1.02
relative viability ([3]; 1 µM): 1.11
relative viability ([4]; 0.02 µM): 0.832
relative viability ([4]; 0.06325 µM): 1.01
relative viability ([4]; 0.2 µM): 0.989
relative viability ([4]; 0.6325 µM): 0.904
relative viability ([4]; 2 µM): 0.803

NCI-H2347
relative viability ([1]; first compound 0.01 µM): 0.4
relative viability ([1]; first compound 0.03162 µM): 0.462
relative viability ([1]; first compound 0.1 µM): 0.427
relative viability ([1]; first compound 0.3162 µM): 0.43
relative viability ([1]; first compound 1 µM): 0.375
relative viability ([2]; first compound 0.02 µM): 0.505
relative viability ([2]; first compound 0.06325 µM): 0.306
relative viability ([2]; first compound 0.2 µM): 0.412
relative viability ([2]; first compound 0.6325 µM): 0.5
relative viability ([2]; first compound 2 µM): 0.276
relative viability ([3]; 0.01 µM): 0.957
relative viability ([3]; 0.03162 µM): 1.09
relative viability ([3]; 0.1 µM): 1.06
relative viability ([3]; 0.3162 µM): 1.04
relative viability ([3]; 1 µM): 0.94
relative viability ([4]; 0.02 µM): 0.971
relative viability ([4]; 0.06325 µM): 0.913
relative viability ([4]; 0.2 µM): 1
relative viability ([4]; 0.6325 µM): 1
relative viability ([4]; 2 µM): 0.918

NCI-H2405
relative viability ([1]; first compound 0.01 µM): 1.05
relative viability ([1]; first compound 0.03162 µM): 1.15
relative viability ([1]; first compound 0.1 µM): 1.09
relative viability ([1]; first compound 0.3162 µM): 1.3
relative viability ([1]; first compound 1 µM): 1.02
relative viability ([2]; first compound 0.02 µM): 0.644
relative viability ([2]; first compound 0.06325 µM): 0.698
relative viability ([2]; first compound 0.2 µM): 0.648
relative viability ([2]; first compound 0.6325 µM): 0.6
relative viability ([2]; first compound 2 µM): 0.225
relative viability ([3]; 0.01 µM): 1.04
relative viability ([3]; 0.03162 µM): 1.11
relative viability ([3]; 0.1 µM): 0.99
relative viability ([3]; 0.3162 µM): 1.01
relative viability ([3]; 1 µM): 0.958
relative viability ([4]; 0.02 µM): 1.08
relative viability ([4]; 0.06325 µM): 1.02
relative viability ([4]; 0.2 µM): 1.02
relative viability ([4]; 0.6325 µM): 1.01
relative viability ([4]; 2 µM): 0.394

NCI-H3122
relative viability ([1]; first compound 0.01 µM): 0.206
relative viability ([1]; first compound 0.03162 µM): 0.193
relative viability ([1]; first compound 0.1 µM): 0.192
relative viability ([1]; first compound 0.3162 µM): 0.188
relative viability ([1]; first compound 1 µM): 0.202
relative viability ([2]; first compound 0.02 µM): 0.935
relative viability ([2]; first compound 0.06325 µM): 1.16
relative viability ([2]; first compound 0.2 µM): 0.89
relative viability ([2]; first compound 0.6325 µM): 1.03
relative viability ([2]; first compound 2 µM): 0.46
relative viability ([3]; 0.01 µM): 0.934
relative viability ([3]; 0.03162 µM): 1.01
relative viability ([3]; 0.1 µM): 1.04
relative viability ([3]; 0.3162 µM): 0.977
relative viability ([3]; 1 µM): 1.01
relative viability ([4]; 0.02 µM): 1
relative viability ([4]; 0.06325 µM): 1.04
relative viability ([4]; 0.2 µM): 0.975
relative viability ([4]; 0.6325 µM): 0.949
relative viability ([4]; 2 µM): 0.984
